The subject of series [1] is Adenovirus (nonproliferating, adenovirus type-5-derived). In words: Adenovirus infectivity after reagent treatment (fluorescent staining of FL cells). The format is cell-based. The procedure:
Monolayer FL cells (cell line contaminated with HeLa cells (derived from human cervical cancer epithelial cells)) on the cover slip (9×28 mm) were washed with PBS one time and then infected with a 50 μL of virus solution. After adsorption for 1 hour, the cells were washed with PBS one time, and then a maintenance solution (the same as the diluent) was added, followed by culture.
Two days after, fluorescent staining was performed with anti-adenovirus antibody (monoclonal antibody: Chemicon MAB805) and Alexa Fluor 488-labeled anti-mouse IgG antibody (SantaCruz Biotechnology), and positive cells were counted in a field of view under a fluorescent microscope (400 times) (average of 20 fields of view was calculated).

Series [2] in a line: Measurement of pH of the reagents. The format is physicochemical. The settings on record: summary Table 9. An excerpt: Also, the experiment was repeated to confirm reproducibility.
For another series, the system named is Feline calicivirus. As to the kind of experiment: Feline calicivirus infectivity after reagent treatment (TCID50 in CRFK cells). The format is cell-based. The settings on record: equal amounts of virus and reagent, 3 minutes at room temperature. Here is the method: To eliminate the influence of serum contained in the original virus, a virus solution was previously 5 times diluted with a diluent (Eagle's minimum essential medium, penicillin G, streptomycin). Equal amounts (35 μL) of the diluted virus solution and each reagent were mixed and allowed to react at room temperature for 3 minutes. Then, a ten-fold dilution series was prepared using the diluent.
Monolayer CRFK cells on a 96-well plate were washed with PBS one time and then the diluted virus solution was inoculated (50 μl/well). After incubation with a CO2 incubator for adsorption and penetration of the virus for 1 hour, the cells were washed with PBS one time, and then a maintenance solution (the same as the diluent) was added (100 μL/well), followed by culture. Three days after, the cells were fixed and stained after extension of CPE, and a 50% infectious dose (unit: 50% tissue culture infectious dose [TCID50]) was calculated using a Behrens-Kaerber method to measure viral infectivity.

For a further series, the system named is Rotavirus Wa Strain. As to the kind of experiment: Rotavirus infectivity after reagent treatment (fluorescent staining of MA104 cells). The conditions noted are these: equal amounts of virus and reagent, 3 minutes at room temperature; for Residual infectivity after treatment: MA104 cells.
The subject of series [3] is Coxsackie virus group B, type 5. In words: Coxsackie virus infectivity after reagent treatment (TCID50 in FL cells). Format: cell-based. Here is the method: The FL cells were infected with the virus, and a 50% infection dose (unit: 50% tissue culture infectious dose [TCID50]) was calculated.
To eliminate the influence of serum contained in original viruses, a virus solution was previously 50 times diluted with PBS.

Setting [4] is: equal amounts of virus and reagent, 3 minutes at room temperature.
Setting [5] is: equal amounts of virus and reagent, 3 minutes at room temperature, FL cells.

Experimental for Rotavirus Wa Strain: Equal amounts (35 μL) of a virus solution and a reagent were mixed, followed by reaction at room temperature for 3 minutes. A 10-fold dilution series was formed using a diluent (MEM) and the MA104 cells on a cover slip (9×28 mm) were infected with 50 μL of the virus solution. After adsorption for 1 hour, the cells were washed with PBS one time and a growth medium (10% PBS-MEM) was added, followed by culture.
One day after, fluorescent staining was performed with anti-rotavirus antibody (monoclonal antibody: Abgene REMEI-1) and Alexa Fluor 488-labeled anti-mouse IgG antibody (SantaCruz Biotechnology), and positive cells were counted in a field of view under a fluorescent microscope (400 times) (average area of 20 fields of view). The number of positive cells per cover slip was calculated on the basis of the area of the field of view, and further infectivity per mL of virus solution was calculated (unit: CIU (cell infecting units)/ml; Kiyotani et al., Virology 177:65-74, 1990). When the number of positive cells was small, the positive cells were measured by observing the whole of the cover slip.

Regarding `CCO` [50% (v/v) ethanol, ethanol], the “Inactivation activity for adenovirus (in words)” value in series [1] is given as “no inactivation ability”. In addition, the results for the “Effect (times) (to PBS)” value (in series [1] (setting [4]); in the series with Feline calicivirus; in series [3] (setting [4])) were 4 times, 12 times and 1 times, respectively. In addition, the “Infectivity ratio (to PBS)” value is listed as 0.2 in series [1] (setting [4]), 0.09 in the series on Feline calicivirus, 0.06 with Rotavirus Wa Strain and 1.778 in series [3] (setting [4]). The “Residual infectivity after treatment” value is reported as 7.7E+07 CIU/ml in series [1] (setting [5]) and 6.2E+05 CIU/ml in the series with Rotavirus Wa Strain. In series [2], this compound returned a pH of 5.09. Further, the “Infectivity (TCID50/ml)” value (in the series on Feline calicivirus (CRFK cells); in series [3] (setting [5])) was 3.2E+07 TCID50/ml each time. Moreover, the “Anti-Coxsackie virus activity (in words)” value in series [3] was “no anti-Coxsackie virus activity”.

Take `CCO` [80% (v/v) ethanol, ethanol]: in the series with Rotavirus Wa Strain, the “Infectivity ratio (to PBS)” value is recorded as 0 and the “Residual infectivity after treatment” value came to 0 CIU/ml.

The values above are taken from US9445605B2, “Method for disinfection or infection control against a non-enveloped virus” (Hiroshima University, priority 2006, dated 2016).
